Assay results taken from article PMC4468608, “A distinct p53 target gene set predicts for response to the selective p53–HDM2 inhibitor NVP-CGM097” (eLife, 2015).

Test system: NCI-H2122
Experiment: Repeat cell proliferation assay
Format: cell-based, human
Conditions: NCI-H2122 TP53 mutant (Q16L and C176F)
Description: . Cell lines were partitioned into sensitive and insensitive groups based on compound potency (IC50). […]. Forty seven cell lines were categorized as sensitive and 309 cell lines as insensitive. For the sensitive cell lines, the maximal compound effect level (Amax) was ≤ −50% (Figure 1C,D, Figure 1—source data 1). […].

**Q.** COc1cc2c(cc1OC(C)C)[C@H](c1ccc(Cl)cc1)N(c1ccc(N(C)C[C@H]3CC[C@H](N4CCNC(=O)C4)CC3)cc1)C(=O)C2 [NVP-CFC218] was tested. Which “sensitivity in repeat cell proliferation assays” value did it give?
**A.** confirmed
